We go through 28 molecules from patent US12486300B2, “Mithramycin oxime derivatives having increased selectivity and anti-cancer activity” (University of Kentucky Research Foundation, priority 2018, dated 2025).

The assay concerns TC32 Ewing sarcoma cells, expressing EWS-FLI1. The assay can be described thus: Growth inhibition assay, TC32 cells. It counts as cell-based. The settings on record: ratio of GI50 PC3 to TC32. The method, then:
Growth inhibition assay to assess cytotoxicity in ETS vs non-ETS expressing cells. Cells were seeded in clear 96-well plates (VWR, Radnor, PA). Seeding densities were optimized for each cell line to support 5 days of linear growth. Following a 24 hours attachment period, cells in duplicate wells were treated with half-log increments of respective compounds (0 nM and 0.3 nM-10 μM). Working stocks were prepared from an initial 10 mM drug stock diluted in either 100% ethanol or dimethyl sulfoxide (DMSO). All wells contained a final concentration of 0.1% (v/v) respective organic solvent. Immediately following treatment, cell viability was measured for vehicle control (Day 0) wells. Cell viability was measured in the remaining wells after 72 hours of incubation with compound or vehicle control (Day 3).
Percent viability, relative to the initial cell seeding concentration, was calculated by ((TreatmentDay3−Vehicle ControlDay0)/(Vehicle ControlDay3−Vehicle ControlDay0))×100. Percent cell viability was plotted as a function of compound concentration (Log [M]) and the data were fit using a 3-parameter non-linear model with fixed Hill slope constant and 4-parameter non-linear model with variable Hill slope constant. The model with the best curve fit was used to estimate the GI50 in GraphPad Prism 7.0 software (GraphPad Software, La Jolla, CA). The 3-parameter equation used was Y=Bottom+(Top−Bottom)/(1+10[…]((X−Log[IC50]))). The 4-parameter equation used was Y=Bottom+(Top−Bottom)/(1+10[…]((Log[IC50]−X)*Hillslope)). Top and Bottom are plateaus in the units of the Y-axis (response). IC50 is the response (Y-axis) halfway between Top and Bottom plateaus.
All compounds were tested at least once in multi-well replicates and each experiment included one a control compound (i.e., MTM) to ensure the stable response of the cell lines. The selectivity index was estimated by determining the ratio of GI50 estimates between ETS fusion negative and ETS fusion positive cell lines.
As for `CON=C(C(O)C(C)O)C(OC)C1Cc2cc3cc(OC4CC(OC5CC(O)C(O)C(C)O5)C(O)C(C)O4)c(C)c(O)c3c(O)c2C(=O)C1OC1CC(OC2CC(OC3CC(C)(O)C(O)C(C)O3)C(O)C(C)O2)C(O)C(C)O1` (stereo not shown) [MTM (1)], the “PC:TC32 (cellular selectivity)” value was determined as 1.66.

For the molecule `COC(C(=NOCc1ccccc1)C(O)C(C)O)C1Cc2cc3cc(OC4CC(OC5CC(O)C(O)C(C)O5)C(O)C(C)O4)c(C)c(O)c3c(O)c2C(=O)C1OC1CC(OC2CC(OC3CC(C)(O)C(O)C(C)O3)C(O)C(C)O2)C(O)C(C)O1` (stereo not shown) [MTM (2)], the “PC:TC32 (cellular selectivity)” value amounted to 1.08.

As to `COC(C(=NO)C(O)C(C)O)C1Cc2cc3cc(OC4CC(OC5CC(O)C(O)C(C)O5)C(O)C(C)O4)c(C)c(O)c3c(O)c2C(=O)C1OC1CC(OC2CC(OC3CC(C)(O)C(O)C(C)O3)C(O)C(C)O2)C(O)C(C)O1` (stereo not shown) [MTM (3)], the “PC:TC32 (cellular selectivity)” value is given as 1.86.

In the case of `CCON=C(C(O)C(C)O)C(OC)C1Cc2cc3cc(OC4CC(OC5CC(O)C(O)C(C)O5)C(O)C(C)O4)c(C)c(O)c3c(O)c2C(=O)C1OC1CC(OC2CC(OC3CC(C)(O)C(O)C(C)O3)C(O)C(C)O2)C(O)C(C)O1` (stereo not shown) [MTM (4)], the “PC:TC32 (cellular selectivity)” value is recorded as 1.15.

As for `COC(C(=NOC[Si](C)(C)C)C(O)C(C)O)C1Cc2cc3cc(OC4CC(OC5CC(O)C(O)C(C)O5)C(O)C(C)O4)c(C)c(O)c3c(O)c2C(=O)C1OC1CC(OC2CC(OC3CC(C)(O)C(O)C(C)O3)C(O)C(C)O2)C(O)C(C)O1` (stereo not shown) [MTM (5E)], the “PC:TC32 (cellular selectivity)” value stood at 1.28.

Take `COC(C(=NOC[Si](C)(C)C)C(O)C(C)O)C1Cc2cc3cc(OC4CC(OC5CC(O)C(O)C(C)O5)C(O)C(C)O4)c(C)c(O)c3c(O)c2C(=O)C1OC1CC(OC2CC(OC3CC(C)(O)C(O)C(C)O3)C(O)C(C)O2)C(O)C(C)O1` (stereo not shown) [MTM (5Z)]: the “PC:TC32 (cellular selectivity)” value is reported as 0.68.

Take `COC(C(=NOCC(C)C)C(O)C(C)O)C1Cc2cc3cc(OC4CC(OC5CC(O)C(O)C(C)O5)C(O)C(C)O4)c(C)c(O)c3c(O)c2C(=O)C1OC1CC(OC2CC(OC3CC(C)(O)C(O)C(C)O3)C(O)C(C)O2)C(O)C(C)O1` (stereo not shown) [MTM (7E)]: the “PC:TC32 (cellular selectivity)” value is given as 1.04.

For the molecule `COC(C(=NOCC(C)C)C(O)C(C)O)C1Cc2cc3cc(OC4CC(OC5CC(O)C(O)C(C)O5)C(O)C(C)O4)c(C)c(O)c3c(O)c2C(=O)C1OC1CC(OC2CC(OC3CC(C)(O)C(O)C(C)O3)C(O)C(C)O2)C(O)C(C)O1` (stereo not shown) [MTM (7Z)], the “PC:TC32 (cellular selectivity)” value came to 1.15.

Regarding `C=CCON=C(C(O)C(C)O)C(OC)C1Cc2cc3cc(OC4CC(OC5CC(O)C(O)C(C)O5)C(O)C(C)O4)c(C)c(O)c3c(O)c2C(=O)C1OC1CC(OC2CC(OC3CC(C)(O)C(O)C(C)O3)C(O)C(C)O2)C(O)C(C)O1` (stereo not shown) [MTM (10)], the “PC:TC32 (cellular selectivity)” value stood at 1.10.

With `COC(C(=NOCc1ccc([N+](=O)[O-])cc1)C(O)C(C)O)C1Cc2cc3cc(OC4CC(OC5CC(O)C(O)C(C)O5)C(O)C(C)O4)c(C)c(O)c3c(O)c2C(=O)C1OC1CC(OC2CC(OC3CC(C)(O)C(O)C(C)O3)C(O)C(C)O2)C(O)C(C)O1` (stereo not shown) [MTM (11)], the “PC:TC32 (cellular selectivity)” value is reported as 1.30.

For `COc1ccc(CON=C(C(O)C(C)O)C(OC)C2Cc3cc4cc(OC5CC(OC6CC(O)C(O)C(C)O6)C(O)C(C)O5)c(C)c(O)c4c(O)c3C(=O)C2OC2CC(OC3CC(OC4CC(C)(O)C(O)C(C)O4)C(O)C(C)O3)C(O)C(C)O2)cc1` (stereo not shown) [MTM (14E)], the “PC:TC32 (cellular selectivity)” value is reported as 2.05.

As to `COc1ccc(CON=C(C(O)C(C)O)C(OC)C2Cc3cc4cc(OC5CC(OC6CC(O)C(O)C(C)O6)C(O)C(C)O5)c(C)c(O)c4c(O)c3C(=O)C2OC2CC(OC3CC(OC4CC(C)(O)C(O)C(C)O4)C(O)C(C)O3)C(O)C(C)O2)cc1` (stereo not shown) [MTM (14Z)], the “PC:TC32 (cellular selectivity)” value is 2.91.

Turning to `COC(C(=NOC(C)(C)C)C(O)C(C)O)C1Cc2cc3cc(OC4CC(OC5CC(O)C(O)C(C)O5)C(O)C(C)O4)c(C)c(O)c3c(O)c2C(=O)C1OC1CC(OC2CC(OC3CC(C)(O)C(O)C(C)O3)C(O)C(C)O2)C(O)C(C)O1` (stereo not shown) [MTM (15E)], the “PC:TC32 (cellular selectivity)” value was found to be 1.87.

Regarding `COC(C(=NOC(C)(C)C)C(O)C(C)O)C1Cc2cc3cc(OC4CC(OC5CC(O)C(O)C(C)O5)C(O)C(C)O4)c(C)c(O)c3c(O)c2C(=O)C1OC1CC(OC2CC(OC3CC(C)(O)C(O)C(C)O3)C(O)C(C)O2)C(O)C(C)O1` (stereo not shown) [MTM (15Z)], the “PC:TC32 (cellular selectivity)” value is 2.25.

As to `COC(C(=NOCCOc1ccc(C(F)(F)F)cc1)C(O)C(C)O)C1Cc2cc3cc(OC4CC(OC5CC(O)C(O)C(C)O5)C(O)C(C)O4)c(C)c(O)c3c(O)c2C(=O)C1OC1CC(OC2CC(OC3CC(C)(O)C(O)C(C)O3)C(O)C(C)O2)C(O)C(C)O1` (stereo not shown) [MTM (16)], the “PC:TC32 (cellular selectivity)” value came out at 7.91.

As to `C#CCON=C(C(O)C(C)O)C(OC)C1Cc2cc3cc(OC4CC(OC5CC(O)C(O)C(C)O5)C(O)C(C)O4)c(C)c(O)c3c(O)c2C(=O)C1OC1CC(OC2CC(OC3CC(C)(O)C(O)C(C)O3)C(O)C(C)O2)C(O)C(C)O1` (stereo not shown) [MTM (17E)], the “PC:TC32 (cellular selectivity)” value is 2.40.

Turning to `C#CCON=C(C(O)C(C)O)C(OC)C1Cc2cc3cc(OC4CC(OC5CC(O)C(O)C(C)O5)C(O)C(C)O4)c(C)c(O)c3c(O)c2C(=O)C1OC1CC(OC2CC(OC3CC(C)(O)C(O)C(C)O3)C(O)C(C)O2)C(O)C(C)O1` (stereo not shown) [MTM (17Z)], the “PC:TC32 (cellular selectivity)” value is given as 1.89.

Regarding `COC(C(=NOCC(=O)NCCc1c[nH]c2ccccc12)C(O)C(C)O)C1Cc2cc3cc(OC4CC(OC5CC(O)C(O)C(C)O5)C(O)C(C)O4)c(C)c(O)c3c(O)c2C(=O)C1OC1CC(OC2CC(OC3CC(C)(O)C(O)C(C)O3)C(O)C(C)O2)C(O)C(C)O1` (stereo not shown) [MTM (18)], the “PC:TC32 (cellular selectivity)” value is 6.44.

For the molecule `COC(C(=NOCCc1c[nH]c2ccccc12)C(O)C(C)O)C1Cc2cc3cc(OC4CC(OC5CC(O)C(O)C(C)O5)C(O)C(C)O4)c(C)c(O)c3c(O)c2C(=O)C1OC1CC(OC2CC(OC3CC(C)(O)C(O)C(C)O3)C(O)C(C)O2)C(O)C(C)O1` (stereo not shown) [MTM (19)], the “PC:TC32 (cellular selectivity)” value amounted to 1.70.

In the case of `COC(C(=NOCCc1c[nH]c2ccccc12)C(O)C(C)O)C1Cc2cc3cc(OC4CC(OC5CC(O)C(O)C(C)O5)C(O)C(C)O4)c(C)c(O)c3c(O)c2C(=O)C1OC1CC(OC2CC(OC3CC(C)(O)C(O)C(C)O3)C(O)C(C)O2)C(O)C(C)O1` (stereo not shown) [MTM (19E)], the “PC:TC32 (cellular selectivity)” value is recorded as 1.40.

On to `COC(C(=NOCCCc1c[nH]c2ccccc12)C(O)C(C)O)C1Cc2cc3cc(OC4CC(OC5CC(O)C(O)C(C)O5)C(O)C(C)O4)c(C)c(O)c3c(O)c2C(=O)C1OC1CC(OC2CC(OC3CC(C)(O)C(O)C(C)O3)C(O)C(C)O2)C(O)C(C)O1` (stereo not shown) [MTM (21)], for which the “PC:TC32 (cellular selectivity)” value was 1.38.

Turning to `COC(C(=NOCCCCc1c[nH]c2ccccc12)C(O)C(C)O)C1Cc2cc3cc(OC4CC(OC5CC(O)C(O)C(C)O5)C(O)C(C)O4)c(C)c(O)c3c(O)c2C(=O)C1OC1CC(OC2CC(OC3CC(C)(O)C(O)C(C)O3)C(O)C(C)O2)C(O)C(C)O1` (stereo not shown) [MTM (22)], the “PC:TC32 (cellular selectivity)” value was 1.54.

For the molecule `COC(=O)C(Cc1c[nH]c2ccccc12)NC(=O)C(Cc1ccccc1)NC(=O)CON=C(C(O)C(C)O)C(OC)C1Cc2cc3cc(OC4CC(OC5CC(O)C(O)C(C)O5)C(O)C(C)O4)c(C)c(O)c3c(O)c2C(=O)C1OC1CC(OC2CC(OC3CC(C)(O)C(O)C(C)O3)C(O)C(C)O2)C(O)C(C)O1` (stereo not shown) [MTM (23)], the “PC:TC32 (cellular selectivity)” value was 7.31.

Consider `COC(=O)C(Cc1c[nH]c2ccccc12)NC(=O)C(Cc1c[nH]c2ccccc12)NC(=O)CON=C(C(O)C(C)O)C(OC)C1Cc2cc3cc(OC4CC(OC5CC(O)C(O)C(C)O5)C(O)C(C)O4)c(C)c(O)c3c(O)c2C(=O)C1OC1CC(OC2CC(OC3CC(C)(O)C(O)C(C)O3)C(O)C(C)O2)C(O)C(C)O1` (stereo not shown) [MTM (24)], for which the “PC:TC32 (cellular selectivity)” value is reported as 6.9.

`COC(=O)C(Cc1ccccc1)NC(=O)C(Cc1c[nH]c2ccccc12)NC(=O)CON=C(C(O)C(C)O)C(OC)C1Cc2cc3cc(OC4CC(OC5CC(O)C(O)C(C)O5)C(O)C(C)O4)c(C)c(O)c3c(O)c2C(=O)C1OC1CC(OC2CC(OC3CC(C)(O)C(O)C(C)O3)C(O)C(C)O2)C(O)C(C)O1` (stereo not shown) [MTM (25)]: the “PC:TC32 (cellular selectivity)” value came to 5.98.

In the case of `COC(=O)C(Cc1cn(C)c2ccccc12)NC(=O)CON=C(C(O)C(C)O)C(OC)C1Cc2cc3cc(OC4CC(OC5CC(O)C(O)C(C)O5)C(O)C(C)O4)c(C)c(O)c3c(O)c2C(=O)C1OC1CC(OC2CC(OC3CC(C)(O)C(O)C(C)O3)C(O)C(C)O2)C(O)C(C)O1` (stereo not shown) [MTM (26)], the “PC:TC32 (cellular selectivity)” value worked out at 5.64.

On to `COC(=O)C(Cc1ccccc1)NC(=O)CON=C(C(O)C(C)O)C(OC)C1Cc2cc3cc(OC4CC(OC5CC(O)C(O)C(C)O5)C(O)C(C)O4)c(C)c(O)c3c(O)c2C(=O)C1OC1CC(OC2CC(OC3CC(C)(O)C(O)C(C)O3)C(O)C(C)O2)C(O)C(C)O1` (stereo not shown) [MTM (27)], for which the “PC:TC32 (cellular selectivity)” value is reported as 7.06.

For `COC(=O)C(Cc1ccccc1)NC(=O)C(Cc1ccccc1)NC(=O)CON=C(C(O)C(C)O)C(OC)C1Cc2cc3cc(OC4CC(OC5CC(O)C(O)C(C)O5)C(O)C(C)O4)c(C)c(O)c3c(O)c2C(=O)C1OC1CC(OC2CC(OC3CC(C)(O)C(O)C(C)O3)C(O)C(C)O2)C(O)C(C)O1` (stereo not shown) [MTM (28)], the “PC:TC32 (cellular selectivity)” value was 11.68.
